Measured values from patent publication US20260325485A1, “COMPOSITIONS AND METHODS FOR TREATING PANCREATITIS” (The United States Government as represented by the …, priority 2022, published 2026).

Tests used:
trypsin = assay: Trypsin activity in Gnptab−/− acinar cells; assay type: cell-based, mouse; conditions: 3 hours; 50 μM CA-074Me or 20 nM BafA1
Method: FIGS. 6A-6R show mechanisms mediating increased trypsin activity in Gnptab−/− pancreas. Trypsin activity and its regulation were analyzed in pancreatic (A, C, and D) tissue, (B and P-R) acinar cells, (E-H and O) lobules, and (I-N) subcellular fractions. In B, acinar cells were incubated for 3 hours without and with 20 nM BafAl or 50 μM CatB inhibitor CA-074Me; in P-R, with the cholesterol chelator methyl-β-cyclodextrin (MCD) at the indicated concentrations. In E-H, pancreatic lobules were double stained for TAP and LC3 or LAMP2; in O, for TAP and filipin. Quantitative colocalization analysis was done as detailed in FIG. 2. Each symbol in A, B, J-N, Q, and R represents an individual mouse or cell preparation (n=3-8 per condition). Each symbol in D, G, and H corresponds to 20 to 30 cells in a different field (n=9-20 fields from 3 WT and 3 KO mice or lobule preparations). Values are mean±SEM. **P<0.01, ***P<0.001 vs. WT tissue/lobules (A, G, and H) or corresponding WT subcellular fraction (K and M). ##P<0.01 vs. no inhibitors (B) or MCD (Q and R). ††P<0.01, †††P<0.001 vs. the other two fractions (L and N). Significance was determined by 2-tailed Student's t test (A, G, and H) or 1-way ANOVA followed by Tukey's multiple comparison test (B, K-N, Q, and R). Scale bars: 10 μm.
Activities of cathepsin (Cat) B and L, caspase-3, trypsin, and lysosomal acid lipase (LAL) were measured in pancreatic tissue or cell homogenates and subcellular fractions with fluorogenic assays using substrates specific for CatB (Z-Arg-Arg-AMC), CatL (Z-Phe-Arg-AMC), caspase-3-like ([…]), trypsin (Boc-Gln-Ala-Arg-AMC), as previously described (1-4, 6, 7); and for LAL (4-methylumbelliferyl oleate), as in (17). In measurements of CatL activity, the assay buffer also contained 50 μM CA-074me, a CatB inhibitor. LAL activity was measured in the absence and presence of the LAL inhibitor lalistat (100 μM) as the difference between these values (17).

neutral lipids = assay: BODIPY 493/503 staining of neutral lipids in acinar cells; assay type: cell-based, mouse; conditions: BafA1 20 nM
Method: FIGS. 13A-13G show neutral lipids accumulate in LE/Ly and autophagic compartments of Gnptab^−/− pancreas. Characteristics of neutral lipid metabolism were measured in (A-C,F,G) pancreatic tissue of WT, Gnptab^−/− (KO) and Atg5^Δpan mice, and (D,E) WT and KO acinar cells treated with Bafilomycin A1 (BafA1; 20 nM). (A) EM showing lipid inclusions in KO pancreas. (B-E) Tissue or cells were stained with BODIPY 493/503 for neutral lipids; BODIPY fluorescence intensity was quantified with Volocity software, normalized to the number of nuclei (DAPI) in the field, and expressed relative to WT control. […] (F,G) Perilipins (PLINs) were analyzed by immunoblot; their band intensities were densitometrically quantified, normalized to GAPDH in the same sample and, further, to WT. […] Significance was determined by 2-tailed Student's t test (G) or 1-way ANOVA followed by Tukey's multiple comparisons test (C,E). […]
All fluorescence images were acquired with a Zeiss LSM710 confocal microscope using x63 objective and preset within-experiment image acquisition settings. Quantitative fluorescence analysis was performed with Volocity software (PerkinElmer). Overlap between 2 fluorescent labels was measured using Manders-Costes coefficient. Pearson's colocalization coefficient was calculated if both immunolabeled proteins had the same (e.g. “dotted”) staining pattern.

LC3-II = assay: Autophagic flux analysis: LC3-II immunoblot in pancreatic acinar cells; assay type: cell-based, mouse; conditions: 30 minutes
Method: FIGS. 2A-2L show Gnptab ablation stimulates autophagosome formation and blocks autophagic flux in pancreatic acinar cells. Parameters of autophagy were measured in WT and […] pancreatic (A-C) acinar cells and (D-L) tissue. (A-C) Acinar cells incubated for 30 minutes with and without bafilomycin A1 (BafA1; 20 nM); LC3-II band intensity was quantified by densitometry, normalized to ERK in the same sample, and LC3-II/ERK ratios further normalized to untreated WT cells (control). Values are mean±SEM; each symbol represents an individual cell preparation (n=4-6 per condition). sP<0.05; paired 2-tailed Student's t test. (D) IB analysis of autophagic markers/mediators. Ub, ubiquitylated proteins. (E-K) Immunofluorescence colocalization analysis for LC3 and LAMP1 (E, G, and H), and LC3 and Stx17 (F and I-K) in WT and KO pancreas. In this and other figures, colocalization was quantified with Volocity software using Manders-Costes (percentage colocalization) and Pearson's coefficients. Values are mean±SEM; each symbol corresponds to 20 to 30 cells in a different field (n=6-9 fields from 3 mice per condition). ***P<0.001 vs. WT; 2-tailed Student's t test. (L). EM showing abnormally large autolysosomes with partially degraded material in pancreas of KO mice. Scale bars: 10 μm (E and F) and 3 μm (L).
To further assess the effects of Gnptab KO on autophagy, autophagic flux analysis was performed by measuring changes in LC3-II in acinar cells incubated with and without the lysosomal v-ATPase inhibitor, bafilomycin A1 (BafA1) (FIG. 2, A-C). The number of autophagic vacuoles in a cell is a net balance between autophagosome formation and their degradation through autophagic flux. Thus, the increase in LC3-II observed in KO pancreas (FIG. 1F and FIG. 2D; see also FIG. 17G) could have resulted from both induction of autophagosome formation and the inhibition of flux. […]
Immunoblots were developed using enhanced chemiluminescence detection kit (Pierce), and band intensities were quantified by densitometry using FluorChem HD2 imaging system (Alpha Innotech/ProteinSimple).

pancreas = assay: Pancreatic total cholesterol and lipids in acute pancreatitis models in WT mice; assay type: in vivo, mouse; conditions: Arg-AP, CER-AP or CDE-AP
Method: FIGS. 8A-8M show derangement of cholesterol metabolism in experimental pancreatitis. Characteristics of cholesterol metabolism were measured, as detailed in FIGS. 4A-4R, in pancreas of WT mice subjected to pancreatitis induced with cerulein (CER-AP), L-arginine (Arg-AP), or CDE diet (CDE-AP) (A, B, and E-G); ex vivo pancreatitis induced in WT mouse (C and I-M) or human acinar cells (D) with 100 nM CCK (CCK-AP) or 1 mM carbachol; and isolated pancreatic mitochondria (H). (B) Cholesterol ester (CE) heatmap; each column represents an individual mouse. (F) IB analysis of the indicated proteins. (G) LAL activity was measured by a fluorogenic assay (n=6 mice per condition). (H) Cholesterol content was measured by enzymatic assay. (I-M) Filipin colocalization with indicated proteins was quantified as detailed in FIGS. 2A-2L. Each symbol in A, C-E, and H represents an individual mouse, or cell or mitochondria preparation (n=3-15 per condition). Each symbol in J, K, and M corresponds to 20-30 cells in a different field (n=10-20 fields from 3 cell preparations per condition). Values are mean±SEM. *P<0.05, **P<0.01, ***P<0.001 vs. the same parameter in control/untreated pancreas, acinar cells or isolated mitochondria. Significance was determined by 2-tailed Student's t test (B, E, H, J, K, and M) or 1-way ANOVA followed by Tukey's multiple comparison test (A, C, and D). Scale bars: 10 μm.
Parameters of cholesterol metabolism were measured in (A, B, E, F) pancreas of mice subjected to pancreatitis induced with cerulean (CER-AP), L-arginine (Arg-AP), or combination of EtOH+palmitoleic acid (EtOH+POA); and (C) ex-vivo models on mouse and human acinar cells treated for 1 h with 100 nM CCK, […] or 500 μM TLCS. […] (B, C) Total cholesterol content was measured with cholesterol assay kit (Abcam, ab65390). […] Signficance was determined by 2-tailed student's t test. […]
Total cholesterol content was measured with Cholesterol Assay kit per manufacturer's instructions. […]
Triglycerides (TAG) content was measured using Triglyceride Assay kit. […]

Compound | Reduction of trypsin activity, Gnptab−/− acinar cells (trypsin) | BODIPY staining, KO (neutral lipids; Gnptab−/− acinar cells) | BODIPY staining increase, WT (neutral lipids; WT acinar cells) | LC3-II levels in KO compared with WT in presence of BafA1 (LC3-II; BafA1 20 nM, Gnptab−/− vs WT acinar cells) | LC3-II increase by BafA1, KO (LC3-II; Gnptab−/− (KO) acinar cells, 20 nM) | LC3-II increase by BafA1, WT (LC3-II; WT acinar cells, 20 nM) | pancreatic total cholesterol, AP models (pancreas)
CO/C1=C\C(C)=C\[C@@H](C)[C@@H](O)[C@@H](C)C/C(C)=C/C=C/[C@H](OC)[C@@H]([C@@H](C)[C@@H](O)[C@H](C)[C@@]2(O)C[C@@H](O)[C@H](C)[C@@H](C(C)C)O2)OC1=O [BafA1, bafilomycin A1] | by half | no additional effect | approximately 3 fold | approximately 11 fold | no increase | approximately 4 fold | –
N=C(N)NCCC[C@H](N)C(=O)O [L-arginine] | – | – | – | – | – | – | increases
